# From ChEMBL document CHEMBL5316283, “Discovery of High-Affinity Small-Molecule Binders of the Epigenetic Reader YEATS4” (J Med Chem, 2023)
# What was measured:
# [1] = Cytotoxicity against human THLE cells assessed as inhibition of cell growth by CellTiter-Glo assay; assay type: toxicity, cell-based
# [2] = species on record: Homo sapiens; experiment: Selectivity ratio of Ki for human recombinant YEATS3 to Ki for human recombinant YEATS4
# [3] = Apparent permeability in dog RRCK cells; assay type: ADME, cell-based, Canis lupus familiaris, MDCKII-LE; details: MDCK
# [4] = species on record: Homo sapiens; experiment: Selectivity ratio of Ki for human recombinant YEATS1 to Ki for human recombinant YEATS4
# [5] = Intrinsic clearance in human hepatocytes assessed per million cells; assay type: ADME, cell-based, Hepatocyte; details: read-out: CLH
# [6] = molecular target: T1, YEATS domain-containing protein 4 (Homo sapiens, UniProt O95619); experiment: Binding affinity to human his-tagged recombinant YEATS4 expressed in Escherichia coli assessed as inhibition constant using biotin tagged lysine 27-crotonylated histone H3 peptide as substrate preincubated for 20 mins followed by substrate addition measured after 30 mins by FRET analysis
# [7] = molecular target: Voltage-gated inwardly rectifying potassium channel KCNH2 (Homo sapiens, UniProt Q12809); experiment: Inhibition of hERG assessed as inhibition constant by patch-clamp assay; assay type: toxicity
# [8] = Lipophilicity, logD of the compound by shake flask method; assay type: physicochemical; details: octanol/water
# [9] = species on record: Homo sapiens; experiment: Selectivity ratio of Ki for human recombinant YEATS2 to Ki for human recombinant YEATS4
# [10] = Cytotoxicity against human Bone marrow cell assessed as reduction in cell viability measured after 7 days; assay type: toxicity, cell-based; details: bone marrow cells
# [11] = molecular target: T1, YEATS domain-containing protein 4; experiment: Binding affinity to C-terminal biotin-tagged YEATS4 (unknown origin) by SPR analysis
# [12] = molecular target: T1, YEATS domain-containing protein 4; experiment: Inhibition of N-terminal nanoLuc-tagged YEATS4 in HEK293T cells co-transfected with C-terminal halo-tagged histone 3.3 incubated for 24 hrs in presence of SAHA by NanoBRET assay; assay type: cell-based
# [13] = molecular target: T1, YEATS domain-containing protein 4; experiment: Binding affinity to YEATS4 (unknown origin) assessed as dissociation constant by isothermal calorimetric analysis
# [14] = molecular target: T1, YEATS domain-containing protein 4; experiment: Binding affinity to YEATS4 (unknown origin) assessed as change in enthalpy by isothermal calorimetric analysis
# [15] = molecular target: T1, YEATS domain-containing protein 4; experiment: Binding affinity to YEATS4 (unknown origin) assessed as change in entropy by isothermal calorimetric analysis
# [16] = Tmax in mouse at 100 mg/kg, po; assay type: ADME, organism-based; details: in vivo
# [17] = molecular target: T2, Protein AF-9 (Homo sapiens, UniProt P42568); experiment: Inhibition of N-terminal nanoLuc-tagged YEATS3 in HEK293T cells co-transfected with C-terminal halo-tagged histone 3.3 incubated for 24 hrs in presence of SAHA by NanoBRET assay; assay type: cell-based
# T2 sequence (P42568 whole entry): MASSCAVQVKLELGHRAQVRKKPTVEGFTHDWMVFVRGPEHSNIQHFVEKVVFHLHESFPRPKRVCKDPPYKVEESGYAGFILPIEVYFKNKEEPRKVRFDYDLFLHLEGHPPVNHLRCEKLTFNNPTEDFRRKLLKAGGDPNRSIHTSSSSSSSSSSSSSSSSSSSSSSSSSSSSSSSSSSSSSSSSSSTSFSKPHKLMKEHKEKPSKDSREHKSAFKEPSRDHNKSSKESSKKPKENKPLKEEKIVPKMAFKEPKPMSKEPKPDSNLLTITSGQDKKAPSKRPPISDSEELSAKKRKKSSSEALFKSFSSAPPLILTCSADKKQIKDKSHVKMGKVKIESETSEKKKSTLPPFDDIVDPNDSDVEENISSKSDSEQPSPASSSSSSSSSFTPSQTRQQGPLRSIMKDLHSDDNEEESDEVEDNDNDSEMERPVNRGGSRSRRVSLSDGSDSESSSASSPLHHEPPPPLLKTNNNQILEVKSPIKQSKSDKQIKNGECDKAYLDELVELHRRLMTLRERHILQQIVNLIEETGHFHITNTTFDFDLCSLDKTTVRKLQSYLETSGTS
# [18] = AUC in mouse at 100 mg/kg, po; assay type: ADME, organism-based; design: dose 100 mg/kg, route po; details: in vivo
# [19] = Half life in mouse at 100 mg/kg, po; assay type: ADME, organism-based; details: in vivo
# [20] = Cmax in mouse at 100 mg/kg, po; assay type: ADME, organism-based; design: dose 100 mg/kg, route po; details: in vivo
# [21] = Tmax in mouse at 3 mg/kg, po; assay type: ADME, organism-based; details: in vivo
# [22] = Oral bioavailability in rat at 3 mg/kg; assay type: ADME, organism-based; details: in vivo
# [23] = Tmax in rat at 3 mg/kg, po; assay type: ADME, organism-based; details: in vivo
# [24] = Oral bioavailability in mouse at 3 mg/kg; assay type: ADME, organism-based; details: in vivo
# [25] = Volume of distribution at steady state in rat at 1 mg/kg, iv; assay type: ADME, organism-based; details: in vivo, read-out: Vdss
# [26] = AUC in rat at 3 mg/kg, po; assay type: ADME, organism-based; design: dose 3 mg/kg, route po; details: in vivo
# [27] = Cmax in mouse at 3 mg/kg, po; assay type: ADME, organism-based; design: dose 3 mg/kg, route po; details: in vivo
# [28] = Volume of distribution at steady state in mouse at 1 mg/kg, iv; assay type: ADME, organism-based; details: in vivo, read-out: Vdss
# [29] = Half life in mouse at 3 mg/kg, po; assay type: ADME, organism-based; details: in vivo
# [30] = Half life in rat at 3 mg/kg, po; assay type: ADME, organism-based; details: in vivo
# [31] = AUC in mouse at 3 mg/kg, po; assay type: ADME, organism-based; design: dose 3 mg/kg, route po; details: in vivo
# [32] = Cmax in rat at 3 mg/kg, po; assay type: ADME, organism-based; design: dose 3 mg/kg, route po; details: in vivo
# Sequence of Voltage-gated inwardly rectifying potassium channel KCNH2 (Q12809 whole entry): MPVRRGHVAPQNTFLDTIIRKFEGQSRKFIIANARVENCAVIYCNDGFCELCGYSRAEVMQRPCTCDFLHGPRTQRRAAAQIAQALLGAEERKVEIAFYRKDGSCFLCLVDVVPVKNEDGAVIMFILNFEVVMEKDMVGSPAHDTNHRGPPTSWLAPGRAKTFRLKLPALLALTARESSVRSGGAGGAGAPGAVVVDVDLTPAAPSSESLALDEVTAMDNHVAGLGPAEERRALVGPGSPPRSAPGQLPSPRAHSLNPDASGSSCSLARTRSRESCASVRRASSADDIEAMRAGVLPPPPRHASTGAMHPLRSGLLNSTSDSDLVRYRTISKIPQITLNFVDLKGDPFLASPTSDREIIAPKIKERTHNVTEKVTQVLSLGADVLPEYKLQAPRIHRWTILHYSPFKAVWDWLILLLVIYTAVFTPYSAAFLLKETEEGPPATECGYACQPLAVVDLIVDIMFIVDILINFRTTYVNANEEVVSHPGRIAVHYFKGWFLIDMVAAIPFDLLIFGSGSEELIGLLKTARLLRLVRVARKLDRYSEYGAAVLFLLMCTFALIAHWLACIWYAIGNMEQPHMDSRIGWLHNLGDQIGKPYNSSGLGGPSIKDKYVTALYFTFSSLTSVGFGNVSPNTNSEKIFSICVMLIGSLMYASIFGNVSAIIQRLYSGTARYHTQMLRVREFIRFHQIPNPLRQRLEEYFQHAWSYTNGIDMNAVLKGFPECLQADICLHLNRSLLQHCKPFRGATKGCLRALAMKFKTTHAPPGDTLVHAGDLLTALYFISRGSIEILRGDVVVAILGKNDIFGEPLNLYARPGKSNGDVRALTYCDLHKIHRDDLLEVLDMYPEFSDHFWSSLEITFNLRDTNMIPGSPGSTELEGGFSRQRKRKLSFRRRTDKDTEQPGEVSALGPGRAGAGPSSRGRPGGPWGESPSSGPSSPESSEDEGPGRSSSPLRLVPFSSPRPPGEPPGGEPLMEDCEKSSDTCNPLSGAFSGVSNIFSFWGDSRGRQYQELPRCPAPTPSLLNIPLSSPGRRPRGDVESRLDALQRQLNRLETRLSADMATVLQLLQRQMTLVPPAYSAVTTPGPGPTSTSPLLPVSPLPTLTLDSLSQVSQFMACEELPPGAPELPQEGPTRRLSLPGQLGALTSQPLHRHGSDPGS
# T1 sequence (O95619 whole entry, the tested form may be a part): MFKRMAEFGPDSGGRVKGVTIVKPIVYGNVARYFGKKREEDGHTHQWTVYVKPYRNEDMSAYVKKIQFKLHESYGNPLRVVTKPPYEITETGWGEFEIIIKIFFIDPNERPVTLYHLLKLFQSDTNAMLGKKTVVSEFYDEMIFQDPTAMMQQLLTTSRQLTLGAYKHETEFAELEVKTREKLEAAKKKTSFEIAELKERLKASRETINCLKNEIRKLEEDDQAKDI
SMILES,IC50 [1],Ratio Ki [2],Papp [3],Ratio Ki [4],hepatocyte CLint [5],Ki [6],Ki [7],logD [8],Ratio Ki [9],IC50 at 7 days [10],Kd [11],IC50 [12],Kd [13],other results
CCNC(=O)c1ccc2c(c1)nc(C)n2C1CCN(CC2(O)CCCCC2)CC1,> 300 µM,16,0.108 ×10⁻⁶ cm/s,19,2.4 µL/min/1e6 cells,141 nM,28.9 µM,1.9,11,–,–,–,–,–
CCNC(=O)c1ccc2c(c1)nc(C)n2[C@H]1CCN(CC2(O)CCCCC2)C[C@@H]1C,> 300 µM,12,0.119 ×10⁻⁶ cm/s,16,5.9 µL/min/1e6 cells,63 nM,22.3 µM,2.4,17,> 100 nM,530 nM,290 nM,80 nM,–
CCNC(=O)c1ccc2c([C@H]3CCN(CC4(O)CCOCC4)C[C@@H]3C)c(C)nn2c1,> 300 µM,27,0.093 ×10⁻⁶ cm/s,35,< 1.8 µL/min/1e6 cells,37 nM,66.6 µM,1.6,15,> 50 nM,–,300 nM,30 nM,deltaH [14]: 13.3 kcal/mol; deltaH [15]: -11.1 cal/mol.K
CCNC(=O)c1ccc2c([C@H]3CCN(CC4(O)CCCCC4)C[C@@H]3C)c(C)nn2c1,> 300 µM,14,0.26 ×10⁻⁶ cm/s,15,4.1 µL/min/1e6 cells,33 nM,4.64 µM,2.5,10,> 50 nM,340 nM,170 nM,52.7 nM,deltaH [14]: -15.1 kcal/mol; Tmax [16]: 30 min; deltaH [15]: -17.4 cal/mol.K; IC50 [17]: 2980 nM; AUC [18]: 412 ng·h/mL; half-life [19]: 72 min; Cmax [20]: 9140 ng/mL
CCNC(=O)c1ccc2c(c1)nc(C(F)F)n2[C@H]1CCN(CC2(O)CCCCC2)C[C@@H]1C,> 300 µM,14,0.271 ×10⁻⁶ cm/s,19,12.8 µL/min/1e6 cells,59 nM,35.4 µM,3.1,17,> 50 nM,297 nM,730 nM,45 nM,Tmax [21]: 18 min; F [22]: 46%; Tmax [23]: 24 min; Tmax [16]: 48 min; F [24]: 68%; AUC [18]: 675 ng·h/mL; Vd [25]: 2.6 L/kg; AUC [26]: 1150 ng·min/mL; Cmax [27]: 1000 ng/mL; Vd [28]: 7.8 L/kg; half-life [19]: 72 min; Cmax [20]: 14000 ng/mL; half-life [29]: 294 min; half-life [30]: 84 min; AUC [31]: 2150 ng·min/mL; Cmax [32]: 487 ng/mL
Cc1nn2cc(C(=O)NCC3CC3)ccc2c1[C@H]1CCN(CC2(O)CCOCC2)C[C@@H]1C,269 µM,106,0.154 ×10⁻⁶ cm/s,133,< 1.8 µL/min/1e6 cells,43 nM,7.38 µM,2,16,–,–,–,–,–
CCNC(=O)c1ccc2c(C3CCN(CC4(O)CCCCC4)CC3)c(-c3cccn(C)c3=O)nn2c1,> 300 µM,15,0.006 ×10⁻⁶ cm/s,19,< 1.8 µL/min/1e6 cells,69 nM,36.1 µM,0.09,4,–,–,–,–,–
CCNC(=O)c1ccc2c(c1)[nH]c(=O)n2C1CCN(CC2(O)CCCCC2)CC1,> 300 µM,7,0.021 ×10⁻⁶ cm/s,8,3.2 µL/min/1e6 cells,284 nM,40.2 µM,1.7,14,–,–,–,–,–
CCNC(=O)c1ccc2c(c1)nc(-c1cccn(C)c1=O)n2[C@H]1CCN(CC2(O)CCCCC2)C[C@@H]1C,> 300 µM,4,0.004 ×10⁻⁶ cm/s,5,< 1.8 µL/min/1e6 cells,33 nM,> 100 µM,1.7,2,–,–,–,–,–
CCNC(=O)c1ccc2c(C3CCN(CC4(O)CCCCC4)CC3)c(C)nn2c1,> 300 µM,23,0.246 ×10⁻⁶ cm/s,20,3.2 µL/min/1e6 cells,56 nM,4.64 µM,2,16,–,–,–,–,–
CCNC(=O)c1ccc2c(C3CCN(CC4(O)C5CC6CC(C5)CC4C6)CC3)c(C)nn2c1 (configuration not stated),123 µM,25,0.331 ×10⁻⁶ cm/s,19,33.7 µL/min/1e6 cells,21 nM,3.43 µM,3.2,7,22 nM,103 nM,–,53 nM,IC50 ([12]; hek293t): 200 nM
COC1(CN2CC[C@H](c3c(C)nn4cc(C(=O)NCC5CC5)ccc34)[C@@H](C)C2)CCOCC1,> 300 µM,160,0.248 ×10⁻⁶ cm/s,213,16.4 µL/min/1e6 cells,57 nM,16.6 µM,2.8,49,–,–,–,–,–
